{"source": "paper PMC4261997", "about": "(British Journal of Pharmacology, 2014)", "key": {"β2-adrenoceptor": {"target": "β2-adrenoceptor", "conditions": "read-out: affinity value for the β2-adrenoceptor; ref Baker et al., [2003b]; cited from earlier work"}, "human β1-adrenoceptor [1]": {"target": "T1, human β1-adrenoceptor (Homo sapiens, UniProt P08588)", "T1 sequence (P08588 whole entry)": "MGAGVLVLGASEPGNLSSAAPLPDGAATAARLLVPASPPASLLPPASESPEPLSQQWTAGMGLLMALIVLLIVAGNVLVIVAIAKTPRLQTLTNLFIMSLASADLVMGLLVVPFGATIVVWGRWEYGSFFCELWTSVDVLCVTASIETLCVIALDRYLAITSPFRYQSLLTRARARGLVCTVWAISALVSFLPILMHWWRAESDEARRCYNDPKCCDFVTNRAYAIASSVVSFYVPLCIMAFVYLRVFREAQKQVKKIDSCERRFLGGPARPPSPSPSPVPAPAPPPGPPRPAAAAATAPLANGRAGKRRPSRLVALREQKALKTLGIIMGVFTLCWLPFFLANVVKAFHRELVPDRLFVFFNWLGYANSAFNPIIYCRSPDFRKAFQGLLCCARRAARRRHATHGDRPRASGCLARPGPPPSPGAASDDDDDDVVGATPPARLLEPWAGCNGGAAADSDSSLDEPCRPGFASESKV", "assay": "Automated live cell BODIPY-TMR-CGP binding, ImageXpress ultra confocal plate reader, CHO-β1 cells", "conditions": "100 nM BOD-CGP; from two-site inhibition curve of the named antagonist, 1 h incubations"}, "human β1-adrenoceptor [2]": {"target": "T1, human β1-adrenoceptor", "assay": "CRE-mediated SPAP transcription reporter gene assay in CHO-β1 cells", "format": "cell-based", "conditions": "for Proportion of low-affinity secondary site (site 2) bound: calculated from affinity values of the functional responses"}}, "data": [{"substance": "Bordifluoropyrromethane-tetramethylrhodamine-(±)CGP 12177 [BODIPY-TMR-CGP]", "values": [{"measurement": "Kd", "setting": "β2-adrenoceptor", "value": 25, "unit": "nM"}, {"measurement": "Fraction of BOD-CGP bound to the low-affinity binding site (%)", "setting": "human β1-adrenoceptor [1]", "value": "42.8 ± 0.9", "unit": "%"}, {"measurement": "Proportion of low-affinity secondary site (site 2) bound", "setting": "human β1-adrenoceptor [2]; 2 nM BODIPY-TMR-CGP", "value": 2, "unit": "%"}, {"measurement": "Proportion of low-affinity secondary site (site 2) bound", "setting": "human β1-adrenoceptor [2]; 20 nM BODIPY-TMR-CGP", "value": "circa 17%"}, {"measurement": "EMAX (% cimaterol)", "setting": "human β1-adrenoceptor [2]; % of the maximum cimaterol response, CHO-β1 cells", "value": "25.6 ± 3.2", "unit": "%"}, {"measurement": "pEC50", "setting": "human β1-adrenoceptor [2]; agonist stimulation of SPAP transcription, CHO-β1 cells", "value": "7.12 ± 0.13"}, {"measurement": "pKD (against CGP 12177)", "setting": "human β1-adrenoceptor [2]; antagonism of CGP 12177 concentration-response curves, low-affinity site 2", "value": "7.28 ± 0.22"}, {"measurement": "pKD (against cimaterol)", "setting": "human β1-adrenoceptor [2]; antagonism of cimaterol concentration-response curves, high-affinity site 1", "value": "9.23 ± 0.06"}, {"measurement": "pKA (partial agonism)", "setting": "human β1-adrenoceptor [2]; from partial agonist concentration-response curve, operational model, cimaterol as full agonist, site 2", "value": "7.06 ± 0.13"}]}]}
